The source of these data is patent publication US20250179465A1, “SITE-SPECIFIC ENCODING OF FLUORINATED PHENYLALANINE RESIDUES IN BACTERIAL AND MAMMALIAN CELLS” (University of Iowa Research Foundation, priority 2022, published 2025).

The target in experiment [1] is T1, PheX-B5 (Methanosarcina barkeri, UniProt Q6WRH6, C313A/N311G). Kind of experiment: ESI-MS encoding fidelity of sfGFP_N150TAG expressed in HEK 293T cells with PheX-B5. Particulars: for fidelity (encoding): PheX-B5, HEK 293T cells, sfGFP_N150TAG, 2 mM ncAA, ESI-MS, estimated. In kind it is cell-based, human. Details: Phex-B5 HEK; expressed in transfected cells; host or cells: HEK 293T. The procedure: (§1) HEK 293T cells were expanded in […]. […] Overall, 7-40 dishes were transfected with master mixes such that each dish received 3.5 μg of pACBAC1, 1.5 μg sfGFP_N150TAG, and 15 μL of PolyJET according to manufacturer's instructions. Media was changed before transfection and approximately 18 hrs after transfection. Cells were harvested approximately 36 hours after transfection. To harvest, each dish was washed twice with DPBS. Cells were harvested via scraping in ice-cold DPBS plus Roche protease inhibitors, on ice, pelleted by centrifugation, and flash frozen in liquid nitrogen. Cells were lysed in hypotonic lysis buffer (10 mM Tris/HCl pH 8, Roche protease inhibitors, 0.1% Triton X 100 Sigma) via dounce homogenization on ice. Cell debris and nuclei were cleared via centrifugation. Clarified lysate was diluted 1:2 in Wash buffer (25 mM Tris/HCl pH 8, 20 mM Imidazole, 150 mM NaCl) and applied to pre-equilibrated Ni-NTA resin (Qiagen). Column was washed in at least 30 volumes of wash buffer, then protein was eluted in elution buffer (25 mM Tris/HCl pH 8, 250 mM Imidazole, 150 mM NaCl). Elution was exchanged into 100 mM TEAB, prepared via 1:10 dilution of 1 M Stock (thermofisher) in ultrapure water. Finally, protein was concentrated to ˜0.5 mg/ml, flash frozen, and submitted to Novatia Inc for ESI mass spec of the intact protein. […] The spectra was analyzed in-house by Novatia (Promass software) to yield relative intensities of the dominant mass and any other apparent peaks. […] To be conservative, all other peaks were considered unexpected mass, even though they may not represent actual misincorporation.
Target sequence in this assay (Q6WRH6 other isoform, or with tags, fused parts or gaps N311G/C313A): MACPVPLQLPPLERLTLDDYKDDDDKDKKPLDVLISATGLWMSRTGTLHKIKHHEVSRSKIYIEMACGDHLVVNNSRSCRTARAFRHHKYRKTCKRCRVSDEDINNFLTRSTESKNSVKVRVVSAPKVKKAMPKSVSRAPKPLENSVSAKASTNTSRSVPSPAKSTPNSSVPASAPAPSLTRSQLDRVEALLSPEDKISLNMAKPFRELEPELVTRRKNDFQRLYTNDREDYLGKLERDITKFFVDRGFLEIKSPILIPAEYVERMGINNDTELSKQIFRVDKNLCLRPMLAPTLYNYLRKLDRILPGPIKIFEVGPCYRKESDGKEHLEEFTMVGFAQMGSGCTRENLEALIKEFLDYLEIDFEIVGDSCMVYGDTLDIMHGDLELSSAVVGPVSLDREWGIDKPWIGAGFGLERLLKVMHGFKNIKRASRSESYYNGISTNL

Experiment [2] deals with T2, PheX-D6 (Methanosarcina barkeri, UniProt Q6WRH6, C313M/N311A/V366G/W382T). Put plainly: ESI-MS encoding fidelity of sfGFP_N150TAG expressed in HEK 293T cells with PheX-D6. Particulars: PheX-D6, HEK 293T cells, 2 mM ncAA, estimated. In kind it is cell-based, human. The arrangement: Phex-D6 HEK; expressed in transfected cells; host or cells: HEK 293T. As to the method: as §1
Target sequence in this assay (Q6WRH6 other isoform, or with tags, fused parts or gaps N311A/C313M/V366G/W382T): as the sequence (Q6WRH6 other isoform, or with tags, fused parts or gaps N311G/C313A) above, with G336A, A338M, V391G, W407T counted along it

The test system of another experiment is sfGFP-N150TAG. Kind of experiment: Permissivity screen (E. coli), sfGFP-N150TAG rescue fluorescence. Format: cell-based. The note with it: result in words; for encoding level in E. coli by the synthetases tested: 1 mM ncAA, 24 hours. The procedure:
Electrocompetent DH10B cells containing the pALS reporter plasmid were transformed with isolated pBK plasmids containing the synthetases. Cultures of 5 mL were inoculated with single colonies of each synthetase in non-inducing media with 50 μg/mL kanamycin and 25 μg/mL tetracycline and grown for 16 hours. Noncanonical amino acid stocks were made at 100× their final concentration. 96-well blocks were prepared with 500 μL of auto-induction media containing antibiotics, and ncAAs with a final working concentration of 1 mM were added to their respective wells. Each well was then inoculated with a corresponding synthetase, yielding a final 96-well block where each synthetase was tested against each amino acid of interest. Cultures were grown in duplicate and fluorescence measurements were taken at 24 hours.

The target in experiment [3] is T1, PheX-B5. Format: cell-based. The arrangement: Phex-B5 ECOLI; expressed in transfected cells; host or cells: E. coli. The note with it: PheX-B5, E. coli, sfGFP N150TAG, 1 mM ncAA, intact protein ESI-MS. As to the method: (§2) Previously existing E. coli containing sfGFP150TAG and a given Rs in non-inducing media were used to inoculate 5 mL cultures of non-inducing media containing 50 μg/mL Kan and 25 μg/mL Tet. Cultures were incubated for 20 hours at 37° C., shaking at 250 rpm. After adequate growth, 500 μL of the 5 mL cultures were used to inoculate 50 mL cultures of auto-inducing media containing 1 mM ncAA. Cultures were incubated for 24 hours (37° C., 250 rpm), after which cultures were then spun down at 5000 rcf for 10 minutes and resuspended in 10 mL of a Tris buffer solution containing 100 mM Tris, 0.5 M NaCl, and 5 mM imidazole. Cells were lysed by micro-fluidization at 18,000 psi and centrifuged at […] for 30 minutes. sfGFP proteins in cell lysate were bound to TALON Metal Affinity Resin (bed volume of 100 μL) at 4° C. for 1 hour. Lysate and bound resin were transferred to a gravity-flow column and the resin was washed with 30 bed volumes of buffer. Protein was eluted using Tris buffer solution previously described supplemented with 200 mM imidazole. Protein concentration was assessed by comparing sfGFP fluorescence to a standard curve and submitted for ESI-MS.
(§3) The spectra were analyzed in-house by Novatia (Promass) to yield relative intensities at given masses. […] For the purpose of estimating encoding fidelity, these were considered part of the expected mass, and all other signals were considered non-expected mass.
Target sequence in this assay (Q6WRH6 whole entry N311G/C313A): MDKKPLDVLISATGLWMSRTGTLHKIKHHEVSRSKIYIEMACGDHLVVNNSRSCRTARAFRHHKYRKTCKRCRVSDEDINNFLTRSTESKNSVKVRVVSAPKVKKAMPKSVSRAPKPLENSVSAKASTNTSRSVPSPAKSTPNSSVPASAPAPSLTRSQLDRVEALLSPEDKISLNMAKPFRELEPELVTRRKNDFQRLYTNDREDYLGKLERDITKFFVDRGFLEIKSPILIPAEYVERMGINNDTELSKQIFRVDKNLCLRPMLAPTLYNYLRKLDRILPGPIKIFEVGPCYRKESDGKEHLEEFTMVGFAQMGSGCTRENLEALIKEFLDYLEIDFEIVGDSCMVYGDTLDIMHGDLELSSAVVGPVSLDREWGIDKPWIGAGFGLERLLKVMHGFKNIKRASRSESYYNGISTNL

In experiment [4] the target is T2, PheX-D6. Put plainly: ESI-MS encoding fidelity of sfGFP_N150TAG expressed in E. coli with PheX-D6. In kind it is cell-based. Details: Phex-D6 ECOLI; expressed in transfected cells; host or cells: E. coli. Particulars: sfGFP N150TAG, 1 mM ncAA, intact protein ESI-MS. The procedure:
as §2, §3
Target sequence in this assay (Q6WRH6 whole entry N311A/C313M/V366G/W382T): as the sequence (Q6WRH6 whole entry N311G/C313A) above, with G311A, A313M, V366G, W382T counted along it

A further experiment relates to F508TAG-CFTR. Kind of experiment: Western blot of full-length F508TAG-CFTR expression via PheX-D6. Format: cell-based, human. The note with it: F508TAG CFTR with PheX-D6, HEK 293T, 2 mM ncAA, result in words. As to the method:
(§4) pCMV-CFTR was a gift from Paul McCray (University of Iowa). WT CFTR-TAA (the existing TAG stop codon changed to TAA), F508 TAG CFTR (TAG amber codon introduced at F508 in the above WT construct), as well as WT and F1486TAG hNav 1.5_strep_HIS_strep were produced using standard methods and sequenced through the open reading frame. For expression of WT CFTR, 10 cm dishes of HEK 293T cells were transfected with 1.5 μg WT CFTR-TAA and 0.25 μg WT GFP. For expression of WT hNav 1.5, 10 cm dishes of HEK 293T cells were transfected with 1.5 μg of WT hNav 1.5_strep_HIS_strep and 0.25 μg WT GFP. For encoding of 2,3,6F Phe, 10 cm dishes of HEK 293T cells were transfected from master mixes of DNA such that each dish received 3.5 μg of PheX-D6 and 0.25 μg of sfSFGFP_N150TAG. Depending on condition, 2 μg of F508TAG-CFTR or 1.5 μg of F1486TAG-Nav 1.5-SHS were added. Media was changed twice (˜16 hr and ˜32 hr post transfection), and cells were harvested ˜44 hrs post transfection and flash frozen in aliquots. Cell pellets were resuspended in RIPA (Sigma Aldrich) plus Roche protease inhibitors. 60 μg of protein from cleared, unconcentrated lysate (or a dilution) was loaded on 4-20% SDS gels. […]
A general note: A western blot detects proteins with antibodies after separation by electrophoresis.

Another experiment concerns F1486TAG-hNav 1.5. Put plainly: Western blot of full-length F1486TAG-hNav 1.5 expression via PheX-D6. Format: cell-based, human. The note with it: F1486TAG hNav 1.5 with PheX-D6, HEK 293T, 2 mM ncAA, result in words. The procedure:
as §4

In a further experiment the test system is sfGFP_N150TAG. Kind of experiment: Permissivity screen (mammalian), lysate GFP fluorescence. Format: cell-based, human. The note with it: HEKT cells, PheX-D6, result in words. As to the method: HEKT cells were seeded in 60 mm dishes so that they would be approximately 60-80% confluent the next day. We transfected the cells using 1.75 μg of the PacBac1-based synthetase plasmid (PheX-D6 or PheX-B5) and 0.75 μg of sfGFP_N150TAG per dish. Polyjet was used (7.5 μl per dish, 2.5 mL media volume). Media was exchanged to contain ncAAs at a given concentration before transfection and approximately 16 hours after transfection. Amino acids were solubilized either in NaOH for those synthesized as free acids (penta-flouro, 2,3,6 trifluoro, 3,4,5 trifluoro, 2,5 difluoro, 2,4 difluoro, 2 mono) or in HCl for those synthesized as HCl salts (2,3,5,6 tetrafluoro, 2,3,4,5 tetrafluoro, 2,6 difluoro). Cells were imaged and harvested approximately 24 hrs after transfection. Images were taken with 20× objective using a Leica DFC9000GT camera with 700 ms exposure, without binning. Excitation was through an X-Cite 120 LED (Lumen Dynamics) set to 100% intensity. For bright field images, light was adjusted manually. […] After cell debris and nuclei were cleared via centrifugation, GFP fluorescence was read from supernatants in 96 well plates; for each concentration of amino acid, at least 6 readings were made from at least 2 transfections. The level of fluorescence from lysates from untransfected cells averaged 21.7±2.1 RFU. […]

As to `N[C@@H](Cc1cc(F)c(F)c(F)c1F)C(=O)O` [2,3,4,5-fluoro phenylalanine, 2,3,4,5 tetra-fluoro Phenylalanine], the entries for the “fidelity (encoding)” value at PheX-B5 [1] and on PheX-D6 [2] were 97.4% and 100%, respectively.
For `N[C@@H](Cc1c(F)c(F)cc(F)c1F)C(=O)O` [2,3,5,6-fluoro Phe, 2,3,5,6 tetra-fluoro Phenylalanine], in the experiment with sfGFP-N150TAG, the “encoding level in E. coli by the synthetases tested” value is “comparable levels to para-methyl tetra-fluoro Phe”. Further, the “fidelity (encoding)” value at PheX-B5 [1] was 100%; on PheX-D6 [2], 98.2%. Also, the encoding fidelity was 97.9% at PheX-B5 [3] and 98.7% on PheX-D6 [4].
In the case of `N[C@@H](Cc1c(F)ccc(F)c1F)C(=O)O` [2,3,6-fluoro Phe, 2,3,6 tri-fluoro Phenylalanine], the “expression of full-length channel (western blot)” value with F508TAG-CFTR and with F1486TAG-hNav 1.5 was “dependent on addition of 2,3,6F Phe” throughout. In addition, the “fidelity (encoding)” value at PheX-B5 [1] is 100%; at PheX-D6 [2], 98.5%. Besides, the figures for the encoding fidelity on PheX-B5 [3] and at PheX-D6 [4] were 88.1% and 96.7%, respectively.
`N[C@@H](Cc1cc(F)ccc1F)C(=O)O` [2,5-fluoro phenylalanine, 2,5-difluoro-Phe]: the “fidelity (encoding)” value is on record as 91.3% on PheX-B5 [1] and 95.6% on PheX-D6 [2].
Turning to `N[C@@H](Cc1c(F)cccc1F)C(=O)O` [2,6-fluoro Phe, 2,6 di-fluoro Phenylalanine], the “fidelity (encoding)” value was 100% on PheX-B5 [1] and 97.6% on PheX-D6 [2]. Further, the encoding fidelity stood at 81.8% at PheX-B5 [3] and 95.0% on PheX-D6 [4].
With `N[C@@H](Cc1ccccc1F)C(=O)O` [2-fluoro Phe, 2-mono fluoro Phenylalanine], the “expression in the screen” value with sfGFP-N150TAG (E. coli, D6 synthetase) is “low expression in the screen”. Further, the “site-specificity of encoding (ESI-MS)” value at PheX-B5 [1] (HEKT cells, sfGFP-N150TAG with PheX-B5, result in words) is recorded as “widespread encoding of 2-mono fluoro Phe at Phe-codons”. At PheX-B5 [3], this compound showed an encoding fidelity of 95.6%.
`N[C@@H](Cc1c(F)c(F)c(F)c(F)c1F)C(=O)O` [Penta-fluoro Phe, 2,3,4,5,6 penta-fluoro Phenylalanine]: the “encoding level in E. coli by the synthetases tested” value in the experiment on sfGFP-N150TAG is reported as “comparable levels to para-methyl tetra-fluoro Phe”. For the same compound, the “fidelity (encoding)” value on PheX-B5 [1] is on record as 96.2%; at PheX-D6 [2] it was 97.5%. The “useable ncAA concentration (dose-response)” value in the experiment on sfGFP_N150TAG is recorded as “useable at sub-millimolar concentrations”. Moreover, the results for the encoding fidelity on PheX-B5 [3] and on PheX-D6 [4] were 97.5% and 98.2%, respectively.
